In patent US12649750B2, “Macrocyclic compounds, compositions, and methods of using thereof” (Sionna Therapeutics Inc., priority 2022, dated 2026):

What was measured:
[1] = target: T1, NBD1 (Homo sapiens, UniProt P13569); assay: Aggregation analysis using differential static light scattering (DSLS), thermal stability of NBD1 (ΔTagg); type: binding; conditions: ΔTagg versus DMSO control, NBD1 0.2 mg/ml
T1 construct: Purified recombinant NBD1 was produced using previously described methods; made in house
Outline: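 Stabilisation is measured as the shift in aggregation onset of recombinant NBD1 (0.2 mg/ml, 2 mM ATP, 5 mM MgCl2, pH7.6) exposed to compound. Images are taken every 0.5° C. while heating at 1° C. per minute, and the inflection-point Tagg is corrected by the DMSO mean.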

[2] = target: T2, CFTR (Homo sapiens, UniProt P13569, DEL508-508); assay: TECC24 AUC fold over DMSO @10 μM, CFTR-mediated transepithelial chloride transport in CF-HBE cells; type: cell-based; conditions: test agent AUC divided by DMSO vehicle AUC, primary CF-HBE cells, ΔF508 homozygous donor, 48 hours incubation
T2 construct: Primary human bronchial epithelial cells from a ΔF508 homozygous CF donor; host or cells: primary human bronchial epithelial cells (CF-HBE), ΔF508 homozygous donor
Outline: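 Primary ΔF508-homozygous CF bronchial epithelial cells on inserts were incubated 48 h at 36.5 °C with compound in IL-13-containing medium. VT and TEER were then recorded in current-clamp mode (pH 7.4 HEPES bath) with benzamil 10 μM, forskolin 10 μM, then CFTR inhibitor-172 20 μM. The IEQ AUC between forskolin and inhibitor was divided by vehicle AUC.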

T2 sequence (P13569 with tags, fused parts or gaps DEL508-508): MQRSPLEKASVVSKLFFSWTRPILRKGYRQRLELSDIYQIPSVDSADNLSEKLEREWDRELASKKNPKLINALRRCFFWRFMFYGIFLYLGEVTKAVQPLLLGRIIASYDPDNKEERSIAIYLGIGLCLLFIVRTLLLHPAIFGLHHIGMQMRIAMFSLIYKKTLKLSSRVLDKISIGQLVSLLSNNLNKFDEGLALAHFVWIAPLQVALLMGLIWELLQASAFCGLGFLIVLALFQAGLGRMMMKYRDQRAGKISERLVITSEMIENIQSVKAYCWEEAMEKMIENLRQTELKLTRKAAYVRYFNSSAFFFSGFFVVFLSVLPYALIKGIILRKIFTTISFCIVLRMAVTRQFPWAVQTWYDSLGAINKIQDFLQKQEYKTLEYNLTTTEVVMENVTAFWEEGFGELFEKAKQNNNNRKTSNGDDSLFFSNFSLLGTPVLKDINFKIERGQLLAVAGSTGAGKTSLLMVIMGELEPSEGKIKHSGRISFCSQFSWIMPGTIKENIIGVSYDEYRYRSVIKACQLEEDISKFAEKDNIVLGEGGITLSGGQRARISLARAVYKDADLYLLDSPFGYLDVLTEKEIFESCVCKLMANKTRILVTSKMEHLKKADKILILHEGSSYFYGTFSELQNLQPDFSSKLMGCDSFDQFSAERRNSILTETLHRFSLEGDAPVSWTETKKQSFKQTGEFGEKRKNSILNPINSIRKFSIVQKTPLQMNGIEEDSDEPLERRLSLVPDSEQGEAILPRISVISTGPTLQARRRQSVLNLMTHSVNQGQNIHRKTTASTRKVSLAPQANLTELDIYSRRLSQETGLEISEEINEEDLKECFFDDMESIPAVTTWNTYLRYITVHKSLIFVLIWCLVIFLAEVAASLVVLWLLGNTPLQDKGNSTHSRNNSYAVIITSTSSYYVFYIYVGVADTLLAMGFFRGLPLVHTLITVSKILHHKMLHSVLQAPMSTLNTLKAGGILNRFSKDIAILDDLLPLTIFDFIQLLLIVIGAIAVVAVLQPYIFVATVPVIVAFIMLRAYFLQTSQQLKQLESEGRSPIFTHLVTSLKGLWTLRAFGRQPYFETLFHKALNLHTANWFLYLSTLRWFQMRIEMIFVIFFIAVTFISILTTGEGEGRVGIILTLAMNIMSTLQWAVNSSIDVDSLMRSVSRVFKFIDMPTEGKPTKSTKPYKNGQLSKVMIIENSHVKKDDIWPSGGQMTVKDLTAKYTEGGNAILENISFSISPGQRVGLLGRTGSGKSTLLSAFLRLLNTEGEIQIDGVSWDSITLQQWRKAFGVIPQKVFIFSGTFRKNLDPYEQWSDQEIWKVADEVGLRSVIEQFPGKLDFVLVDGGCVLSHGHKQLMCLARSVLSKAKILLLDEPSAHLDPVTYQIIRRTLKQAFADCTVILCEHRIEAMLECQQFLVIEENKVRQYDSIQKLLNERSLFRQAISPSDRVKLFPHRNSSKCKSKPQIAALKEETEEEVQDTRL
T1 sequence (P13569 423-646 limits assumed): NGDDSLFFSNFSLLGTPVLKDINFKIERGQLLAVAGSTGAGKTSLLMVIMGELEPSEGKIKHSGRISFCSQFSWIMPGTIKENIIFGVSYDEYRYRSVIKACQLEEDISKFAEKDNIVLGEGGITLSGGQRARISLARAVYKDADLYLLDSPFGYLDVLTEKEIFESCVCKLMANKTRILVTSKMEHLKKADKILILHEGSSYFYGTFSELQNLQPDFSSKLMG

| SMILES | DSLS 3D (100 μM ΔT) [1] | TECC (AUC, 10 μM) [2] |
| --- | --- | --- |
| Cc1cnn2c1-c1cc(ccc1F)Oc1c(F)cc3[nH]ccc3c1CCS(=O)(=O)CC(C)(C)CCCC2c1cccc(CCC(=O)O)c1 (single isomer, unassigned) [Compound 65A, 3-[3-(23,29-Difluoro-3,11,11-trimethyl-13,13-dioxo-25-oxa-13λ6-thia-5,6,20-triazapentacyclo[24.3.1.02,6.016,24.017,21]triaconta-1(30),2,4,16,18,21,23,26,28-nonaen-7-yl)phenyl]propanoic acid] | B (a value above 5 °C and less than or equal to 10 °C is marked “B”) | A (a TECC value less than 12 is marked “A”) |
| Cc1cnn2c1-c1cc(ccc1F)Oc1c(F)cc3[nH]ccc3c1CCS(=O)(=O)CC(C)(C)CCCC2c1cccc(CCC(=O)O)c1 (single isomer, unassigned) [Compound 65B, 3-[3-(23,29-Difluoro-3,11,11-trimethyl-13,13-dioxo-25-oxa-13λ6-thia-5,6,20-triazapentacyclo[24.3.1.02,6.016,24.017,21]triaconta-1(30),2,4,16,18,21,23,26,28-nonaen-7-yl)phenyl]propanoic acid] | C (a value greater than 10 °C and less than or equal to 25 °C is marked “C”) | A (a TECC value less than 12 is marked “A”) |
| CC(CC(=O)O)c1cccc(C2(C)CCOC(C)(C)CS(=O)(=O)CCc3c(c(F)cc4[nH]ccc34)Oc3ccc(F)c(c3)-c3nc2nn3C)c1 (single isomer, unassigned) [Compound 72A, 3-[3-(22,28-difluoro-3,6,10,10-tetramethyl-12,12-dioxo-9,24-dioxa-12lambda6-thia-3,4,19,30-tetrazapentacyclo-[23.3.1.12,5.015,23.016,20]triaconta-1(29),2(30),4,15,17,20,22,25,27-nonaen-6-yl)phenyl]-butanoic Acid] | C (a value greater than 10 °C and less than or equal to 25 °C is marked “C”) | A (a TECC value less than 12 is marked “A”) |
| CC(CC(=O)O)c1cccc(C2(C)CCOC(C)(C)CS(=O)(=O)CCc3c(c(F)cc4[nH]ccc34)Oc3ccc(F)c(c3)-c3nc2nn3C)c1 (single isomer, unassigned) [Compound 72B, 3-[3-(22,28-difluoro-3,6,10,10-tetramethyl-12,12-dioxo-9,24-dioxa-12lambda6-thia-3,4,19,30-tetrazapentacyclo-[23.3.1.12,5.015,23.016,20]triaconta-1(29),2(30),4,15,17,20,22,25,27-nonaen-6-yl)phenyl]-butanoic Acid] | A (an ΔTagg value less than or equal to 5 °C is marked “A”) | A (a TECC value less than 12 is marked “A”) |
| Cn1nc2nc1-c1cc(ccc1F)Oc1c(F)cc3[nH]ccc3c1CCS(=O)(=O)CC(C)(C)OCCC2(C)c1cccc(CCC(=O)O)c1 (single isomer, unassigned) [Compound 73A, 3-[3-(22,28-difluoro-3,6,10,10-tetramethyl-12,12-dioxo-9,24-dioxa-12lambda6-thia-3,4,19,30-tetrazapentacyclo-[23.3.1.12,5.015,23.016,20]triaconta-1(29),2(30),4,15,17,20,22,25,27-nonaen-6-yl)phenyl]-propanoic Acid] | C (a value greater than 10 °C and less than or equal to 25 °C is marked “C”) | A (a TECC value less than 12 is marked “A”) |
| Cn1nc2nc1-c1cc(ccc1F)Oc1c(F)cc3[nH]ccc3c1CCS(=O)(=O)CC(C)(C)OCCC2(C)c1cccc(CCC(=O)O)c1 (single isomer, unassigned) [Compound 73B, 3-[3-(22,28-difluoro-3,6,10,10-tetramethyl-12,12-dioxo-9,24-dioxa-12lambda6-thia-3,4,19,30-tetrazapentacyclo-[23.3.1.12,5.015,23.016,20]triaconta-1(29),2(30),4,15,17,20,22,25,27-nonaen-6-yl)phenyl]-propanoic Acid] | A (an ΔTagg value less than or equal to 5 °C is marked “A”) | B (a value between 12-20 is marked “B”) |
| CC(CC(=O)O)c1cccc(C2(C)CCCC(C)(C)CS(=O)(=O)CCc3c(c(F)cc4[nH]ccc34)Oc3ccc(F)c(c3)-c3nc2nn3C)c1 (single isomer, unassigned) [Compound 79A, 3-[3-(22,28-difluoro-3,6,10,10-tetramethyl-12,12-dioxo-24-oxa-12lambda6-thia-3,4,19,30-tetrazapentacyclo[23.3.1.12,5.015,23.016,20]triaconta-1(29),2(30),4,15,17,20,22,25,27-nonaen-6-yl)phenyl]butanoic Acid] | C (a value greater than 10 °C and less than or equal to 25 °C is marked “C”) | C (a value between 20 and 80 is marked “C”) |
| CC(CC(=O)O)c1cccc(C2(C)CCCC(C)(C)CS(=O)(=O)CCc3c(c(F)cc4[nH]ccc34)Oc3ccc(F)c(c3)-c3nc2nn3C)c1 (single isomer, unassigned) [Compound 79B, 3-[3-(22,28-difluoro-3,6,10,10-tetramethyl-12,12-dioxo-24-oxa-12lambda6-thia-3,4,19,30-tetrazapentacyclo[23.3.1.12,5.015,23.016,20]triaconta-1(29),2(30),4,15,17,20,22,25,27-nonaen-6-yl)phenyl]butanoic Acid] | B (a value above 5 °C and less than or equal to 10 °C is marked “B”) | A (a TECC value less than 12 is marked “A”) |
| O=C(O)CCc1cccc(C2NC(=O)CCCS(=O)(=O)CCc3c(c(F)cc4[nH]ccc34)Oc3ccc(F)c(c3)-c3ncc2[nH]3)c1 (single isomer, unassigned) [Compound 80, 3-[3-[22,28-difluoro-8,12,12-trioxo-24-oxa-12lambda6-thia-3,7,19,30-tetrazapentacyclo[23.3.1.12,5.015,23.016,20]triaconta-1(29),2,4,15,17,20,22,25,27-nonaen-6-yl]phenyl]propanoic acid] | B (a value above 5 °C and less than or equal to 10 °C is marked “B”) | A (a TECC value less than 12 is marked “A”) |
| O=C1CCCS(=O)(=O)CCc2c(c(F)cc3[nH]ccc23)Oc2ccc(F)c(c2)-c2ncc([nH]2)C(c2ccccc2)N1 (single isomer, unassigned) [Compound 81, 22,28-difluoro-12,12-dioxo-6-phenyl-24-oxa-12lambda6-thia-3,7,19,30 tetrazapentacyclo[23.3.1.12,5.015,23.016,20]triaconta-1(29),2,4,15,17,20,22,25,27-nonaen-8-one] | A (an ΔTagg value less than or equal to 5 °C is marked “A”) | A (a TECC value less than 12 is marked “A”) |
| O=C(O)CCc1cccc(C2NC(=O)CCCS(=O)(=O)CCc3c(c(F)cc4[nH]ccc34)Oc3ccc(F)c(c3)-c3ncc2[nH]3)c1 (single isomer, unassigned) [Compound 82, 3-[3-[22,28-difluoro-8,12,12-trioxo-24-oxa-12lambda6-thia-3,7,19,30-tetrazapentacyclo [23.3.1.12,5.015,23.016,20]-triaconta-1(29),2,4,15,17,20,22,25,27-nonaen-6-yl]phenyl]propanoic acid] | C (a value greater than 10 °C and less than or equal to 25 °C is marked “C”) | A (a TECC value less than 12 is marked “A”) |
| O=C1CCCS(=O)(=O)CCc2c(c(F)cc3[nH]ccc23)Oc2ccc(F)c(c2)-c2ncc([nH]2)C(c2ccccc2)N1 (single isomer, unassigned) [Compound 83, 22,28-difluoro-12,12-dioxo-6-phenyl-24-oxa-12lambda6-thia-3,7,19,30-tetrazapentacyclo [23.3.1.12,5.015,23.016,20]-triaconta-1(29),2,4,15,17,20,22,25,27-nonaen-8-one] | B (a value above 5 °C and less than or equal to 10 °C is marked “B”) | A (a TECC value less than 12 is marked “A”) |
| Cc1cn2nc1-c1cc(ccc1F)Oc1c(F)cc3[nH]ccc3c1CCS(=O)(=O)CC(C)(C)COCC2c1cccc(CCC(=O)O)c1 (single isomer, unassigned) [Compound 84B, 3-[3-(22,28-difluoro-3,10,10-trimethyl-12,12-dioxo-8,24-dioxa-12lambda6-thia-5,19,30-triazapentacyclo[23.3.1.12,5.015,23.016,20]triaconta-1(29),2(30),3,15,17,20,22,25,27-nonaen-6-yl)phenyl]propanoic acid] | A (an ΔTagg value less than or equal to 5 °C is marked “A”) | A (a TECC value less than 12 is marked “A”) |
| Cc1cnn2c1-c1cc(ccc1F)Oc1c(F)cc3[nH]ccc3c1CCS(=O)(=O)CC(C)(C)COCC2c1cccc(CCC(=O)O)c1 (single isomer, unassigned) [Compound 85, 3-[3-(23,29-difluoro-3,11,11-trimethyl-13,13-dioxo-9,25-dioxa-13λ6-thia-5,6,20-triazapentacyclo[24.3.1.02,6.016,24.017,21]triaconta-1(30),2,4,16,18,21,23,26,28-nonaen-7-yl)phenyl]propanoic Acid] | A (an ΔTagg value less than or equal to 5 °C is marked “A”) | A (a TECC value less than 12 is marked “A”) |
